The text below walks through data of patent publication US20050124575A1, “Remedies” (Takara Bio Inc., priority 2002, published 2005).

This data set concerns mouse. Description: Acute toxicity after oral or intraperitoneal administration. The class given is in vivo. Particulars: orally or intraperitoneally administered to a mouse at 1 g/kg.

For agarose, the acute toxicity result was “No acute toxicity”.
